# What was measured:
# [1] = tested on: wild poinsettia; experiment: Test E postemergence; assay type: in vivo, Euphorbia heterophylla
# Outline: (§1)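 Test chemicals formulated in a non-phytotoxic solvent mixture containing a surfactant were applied preemergence to seeds in silt loam soil or postemergence to plants at the 1- to 4-leaf stage in potting mix. After 14 to 21 days in a greenhouse, injury was visually rated against controls on a 0-100 scale (0 = no effect, 100 = complete control).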
# [2] = tested on: waterhemp_RES1 (ALS & Triazine resistant common waterhemp); experiment: Test E postemergence; assay type: in vivo, Amaranthus rudis
# Outline: as §1
# [3] = tested on: waterhemp_RES2 (ALS & HPPD resistant common waterhemp); experiment: Test E postemergence; assay type: in vivo, Amaranthus rudis
# Outline: as §1
# [4] = tested on: waterhemp; experiment: Test E postemergence; assay type: in vivo, Amaranthus rudis
# Outline: as §1
# [5] = tested on: sandbur; experiment: Test E postemergence; assay type: in vivo, Cenchrus echinatus
# Outline: as §1
# [6] = tested on: dayflower; experiment: Test E postemergence; assay type: in vivo, Commelina virginica
# Outline: as §1
# [7] = tested on: field bindweed; experiment: Test E postemergence; assay type: in vivo, Convolvulus arvensis
# Outline: as §1
# [8] = tested on: rice; experiment: Test C flooded paddy test; assay type: in vivo, Oryza sativa; details: Flood, scale 0 to 100 (0 no effect, 100 complete control), 13 to 15 days
# Outline: (§2)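 In-water treatment: compound dosed into 3 cm flood over soil, water level unchanged throughout. Controls run alongside; visual assessment at day 13–15.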
# [9] = tested on: ducksalad; experiment: Test C flooded paddy test; assay type: in vivo, Heteranthera limosa; details: Flood, scale 0 to 100 (0 no effect, 100 complete control), 13 to 15 days
# Outline: as §2
# [10] = Postemergence, 31 g ai/ha, scale 0 to 100
# [11] = Postemergence, 62 g ai/ha, scale 0 to 100
# [12] = Postemergence, 125 g ai/ha, scale 0 to 100
# [13] = postemergence, 16 g ai/ha, scale 0 to 100, 0 no effect, 100 complete control
# [14] = postemergence, 8 g ai/ha, scale 0 to 100, 0 no effect, 100 complete control
smiles,measurement,setting,value
Clc1cnc(Oc2cccc(Cl)c2-n2cc(I)cn2)nc1 [Compound 181],"Plant response rating, Poinsettia, Wild",[1]; [10],50
same,"Plant response rating, Poinsettia, Wild",[1]; [11],50
same,"Plant response rating, Poinsettia, Wild",[1]; [12],60
same,"Plant response rating, Poinsettia, Wild",[1]; [13],40
same,"Plant response rating, Waterhemp_RES1",[2]; [10],95
same,"Plant response rating, Waterhemp_RES1",[2]; [11],90
same,"Plant response rating, Waterhemp_RES1",[2]; [12],95
same,"Plant response rating, Waterhemp_RES1",[2]; [13],90
same,"Plant response rating, Waterhemp_RES2",[3]; [10],95
same,"Plant response rating, Waterhemp_RES2",[3]; [11],98
same,"Plant response rating, Waterhemp_RES2",[3]; [12],100
same,"Plant response rating, Waterhemp_RES2",[3]; [13],85
same,"Plant response rating, Waterhemp",[4]; [10],95
same,"Plant response rating, Waterhemp",[4]; [11],95
same,"Plant response rating, Waterhemp",[4]; [12],98
same,"Plant response rating, Waterhemp",[4]; [13],65
same,"Plant response rating, Sandbur",[5]; [10],15
same,"Plant response rating, Sandbur",[5]; [11],10
same,"Plant response rating, Sandbur",[5]; [12],20
same,"Plant response rating, Sandbur",[5]; [13],5
same,"Plant response rating, Dayflower, VA",[6]; [10],30
same,"Plant response rating, Dayflower, VA",[6]; [11],40
same,"Plant response rating, Dayflower, VA",[6]; [12],60
same,"Plant response rating, Dayflower, VA",[6]; [13],20
same,"Plant response rating, Field Bindweed",[7]; [10],40
same,"Plant response rating, Field Bindweed",[7]; [11],40
same,"Plant response rating, Field Bindweed",[7]; [12],50
same,"Plant response rating, Field Bindweed",[7]; [13],25
FC(F)(F)c1cnn(-c2c(Br)cccc2Oc2ncc(Cl)cn2)c1 [Compound 191],"Plant response rating, Rice",[8]; 31 g ai/ha,0
same,"Plant response rating, Rice",[8]; 62 g ai/ha,0
same,"Plant response rating, Rice",[8]; 125 g ai/ha,0
same,"Plant response rating, Rice",[8]; 250 g ai/ha,0
same,"Plant response rating, Ducksalad",[9]; 31 g ai/ha,30
same,"Plant response rating, Ducksalad",[9]; 62 g ai/ha,50
same,"Plant response rating, Ducksalad",[9]; 125 g ai/ha,75
same,"Plant response rating, Ducksalad",[9]; 250 g ai/ha,80
same,"Plant response rating, Poinsettia, Wild",[1]; [10],50
same,"Plant response rating, Poinsettia, Wild",[1]; [11],50
same,"Plant response rating, Poinsettia, Wild",[1]; [12],60
same,"Plant response rating, Poinsettia, Wild",[1]; [14],20
same,"Plant response rating, Poinsettia, Wild",[1]; [13],40
same,"Plant response rating, Waterhemp_RES1",[2]; [10],80
same,"Plant response rating, Waterhemp_RES1",[2]; [11],90
same,"Plant response rating, Waterhemp_RES1",[2]; [12],95
same,"Plant response rating, Waterhemp_RES1",[2]; [14],50
same,"Plant response rating, Waterhemp_RES1",[2]; [13],70
same,"Plant response rating, Waterhemp_RES2",[3]; [10],95
same,"Plant response rating, Waterhemp_RES2",[3]; [11],95
same,"Plant response rating, Waterhemp_RES2",[3]; [12],100
same,"Plant response rating, Waterhemp_RES2",[3]; [13],90
same,"Plant response rating, Waterhemp",[4]; [10],90
same,"Plant response rating, Waterhemp",[4]; [11],90
same,"Plant response rating, Waterhemp",[4]; [12],95
same,"Plant response rating, Waterhemp",[4]; [14],60
same,"Plant response rating, Waterhemp",[4]; [13],70
same,"Plant response rating, Sandbur",[5]; [10],0
same,"Plant response rating, Sandbur",[5]; [11],0
same,"Plant response rating, Sandbur",[5]; [12],10
same,"Plant response rating, Sandbur",[5]; [14],0
same,"Plant response rating, Sandbur",[5]; [13],0
same,"Plant response rating, Dayflower, VA",[6]; [10],5
same,"Plant response rating, Dayflower, VA",[6]; [11],10
same,"Plant response rating, Dayflower, VA",[6]; [12],10
same,"Plant response rating, Dayflower, VA",[6]; [14],0
same,"Plant response rating, Dayflower, VA",[6]; [13],0
same,"Plant response rating, Field Bindweed",[7]; [10],50
same,"Plant response rating, Field Bindweed",[7]; [11],40
same,"Plant response rating, Field Bindweed",[7]; [12],50
same,"Plant response rating, Field Bindweed",[7]; [14],20
same,"Plant response rating, Field Bindweed",[7]; [13],40
